Source: ChEMBL document CHEMBL1151711, “Studies on quinones. Part 44: Novel angucyclinone N-heterocyclic analogues endowed with antitumoral activity” (Bioorg Med Chem, 2008)

Legend:
SK-MES-1 = experiment: Cytotoxicity against human SK-MES-1 cells after 3 days by MTT assay; format: functional, cell-based; settings: SK-MES-1, 72 h
MRC5 = experiment: Cytotoxicity against human MRC5 cells after 3 days by MTT assay; format: cell-based; settings: MRC5, 72 h
AGS = experiment: Cytotoxicity against human AGS cells after 3 days by MTT assay; format: functional, cell-based; settings: 72 h
HL-60 = experiment: Cytotoxicity against human HL-60 cells after 3 days by MTT assay; format: functional, cell-based; settings: HL-60, 72 h
J82 = experiment: Cytotoxicity against human J82 cells after 3 days by MTT assay; format: functional, cell-based; settings: J82, 72 h

Structure (SMILES) | IC50 (SK-MES-1) | IC50 (MRC5) | IC50 (AGS) | IC50 (HL-60) | IC50 (J82)
Cn1c(=O)c2c3c(cnc2n(C)c1=O)C(=O)C=CC3=O | 67.5 µM | 72.8 µM | 82.1 µM | 31.5 µM | 78.6 µM
Cc1nc2c(c3c1C(=O)c1ccccc1C3=O)C(=O)CCC2 | 11.9 µM | 21.5 µM | 9.5 µM | 45.2 µM | 7.7 µM
O=C1c2ccccc2C(=O)c2c1cnc1c2C(=O)CCC1 | 51.6 µM | 41.3 µM | 19 µM | 73.2 µM | 62.6 µM
O=C1c2c(O)cccc2C(=O)c2c3c(cc(O)c21)CCCC3 | 73.7 µM | > 100 µM | 41.6 µM | > 100 µM | 69.9 µM
Cc1nc2c(c3c1C(=O)C=CC3=O)C(=O)CCC2 | 3.5 µM | 20.5 µM | 22 µM | 46.5 µM | 5.6 µM
O=C1c2cnc3c(c2C(=O)c2cccc(O)c21)C(=O)CCC3 | 3.7 µM | 11.3 µM | 1.6 µM | 5.6 µM | 9.2 µM
CC1(C)CC(=O)c2c(ncc3c2C(=O)C=CC3=O)C1 | > 100 µM | 39.9 µM | 75.2 µM | 43.6 µM | 95.3 µM
Cn1c(=O)c2c3c(cnc2n(C)c1=O)C(=O)c1c(O)cccc1C3=O | 8.1 µM | 6.8 µM | 5.9 µM | 15.9 µM | 9.2 µM
Cc1nc2c(c3c1C(=O)c1c(O)cccc1C3=O)c(=O)n(C)c(=O)n2C | > 100 µM | > 100 µM | 70 µM | > 100 µM | > 100 µM
Cc1nc2c(c3c1C(=O)C=CC3=O)c(=O)n(C)c(=O)n2C | 70.2 µM | 67.1 µM | 50.3 µM | 26.3 µM | 72.4 µM
Cn1c(=O)c2c3c(cnc2n(C)c1=O)C(=O)c1ccccc1C3=O | 8.9 µM | 12.6 µM | 3.5 µM | 20.4 µM | 8.7 µM
Cc1nc2c(c3c1C(=O)c1ccccc1C3=O)c(=O)n(C)c(=O)n2C | 5.2 µM | > 100 µM | 19.1 µM | > 100 µM | 24.9 µM
CC1(C)CC(=O)c2c(ncc3c2C(=O)c2cccc(O)c2C3=O)C1 | 3.6 µM | 6.5 µM | 11.6 µM | 2.3 µM | 3.9 µM
Cc1nc2c(c3c1C(=O)c1c(O)cccc1C3=O)C(=O)CC(C)(C)C2 | 4.6 µM | 5.5 µM | 7.4 µM | 11.8 µM | 15.7 µM
O=C1c2cnc3c(c2C(=O)c2cccc(O)c21)CCCC3 | 36.8 µM | 63.6 µM | 36.8 µM | 45.8 µM | 20.5 µM
Cc1nc2c(c3c1C(=O)c1c(O)cccc1C3=O)C(=O)CCC2 | 10.2 µM | 17.3 µM | 4.5 µM | 23.9 µM | 17.5 µM
Cc1nc2c(c3c1C(=O)c1ccccc1C3=O)C(=O)CC(C)(C)C2 | 13.5 µM | 15.9 µM | 4.5 µM | 17.5 µM | 18.9 µM
Cc1cnc2c(c1)C(=O)c1c(cnc3c1C(=O)CCC3)C2=O | 1.7 µM | 0.73 µM | 1.2 µM | 2.4 µM | 1.8 µM
O=C1C=CC(=O)c2c1cnc1c2C(=O)CCC1 | 25.7 µM | 20.2 µM | 19.4 µM | 15.8 µM | 38.8 µM
